Source: PMC9861858, “Stereoselective Synthesis and Antiproliferative Activities of Tetrafunctional Diterpene Steviol Derivatives” (International Journal of Molecular Sciences, 2023)
In brackets after ≈: the same amount, converted by molar mass.

Experiments:
[1] = tested on: HeLa cells; test: MTT antiproliferative assay, HeLa; assay type: cell-based, human; details: Homo sapiens, HeLa, 72 h, values <20% considered negligible, read-out: Growth inhibition (%) ± SEM, HeLa
Protocol: (§1) The in vitro antiproliferative activities of the synthesised aminotriols 5–18 against a panel of different human cancer cell lines of gynecological origin, including cervical (SiHA and HeLa), breast (MCF7 and MDA-MB-231), ovary (A2780) cancers and NIH/3T3 healthy fibroblasts, were assayed by the MTT method. Cisplatin, a clinically applied anticancer agent was used as a reference compound, and the results are summarised in Figure 3 and Table S1 in the Supplementary Materials.
(§2) The growth-inhibitory effects of the presented terpenes were determined by a standard MTT [3-(4,5-dimethylthiazol2-yl)-2,5-diphenyltetrazolium bromide] assay against […] human cancer cell lines (cervical cancer HeLa and SiHa cell lines, breast cancer MCF-7 and MDA-MB-231 and ovarian cancer A2780). Murine embryonal fibroblast cells (NIH/3T3) were used to determine selectivity. All cell lines were purchased from the European Collection of Cell Cultures (Salisbury, UK). The cells were cultivated in Eagle’s minimal essential medium supplemented with 10% fetal bovine serum, 1% non-essential amino acids, and 1% Antibiotic-Antimycotic complex (penicillin, streptomycin, amphotericin B) at 37 °C in a humidified atmosphere containing 5% CO2. All media and supplements were purchased from Lonza Group Ltd. (Basel, Switzerland). Cancer cells were seeded into 96-well plates (5000 cells/well) after an overnight incubation, and the test compounds were added at two different concentrations (10 μM and 30 μM) and incubated for another 72 h under cell-culturing conditions. Finally, 20 μL of a 5 mg/mL MTT solution was added to each well, and the contents were incubated for a further 4 h. The medium was removed, and the precipitated formazan crystals were dissolved in DMSO by shaking at 37 °C for 60 min. The absorbance was measured at 545 nm by using a microplate reader (SPECTROStar Nano, BMG Labtech, Offenburg, Germany). Clinically utilised anticancer agent cisplatin (Ebewe GmbH, Unterach, Austria) was included as a reference molecule. Calculations were performed using the GraphPad Prism 9 software (GraphPad Software Inc., San Diego, CA, USA).

[2] = tested on: SiHa cells; test: MTT antiproliferative assay, SiHa; assay type: cell-based, human; details: Homo sapiens, SiHa, 72 h, values <20% considered negligible, read-out: Growth inhibition (%) ± SEM, SiHa
Protocol: as §1, §2

[3] = tested on: MCF-7 cells; test: MTT antiproliferative assay, MCF-7; assay type: cell-based, human; details: for inhibition at 10 µM / inhibition at 30 µM: Homo sapiens, 72 h, values <20% considered negligible, read-out: Growth inhibition (%) ± SEM, MCF-7; for inhibition at 10 µM: MCF7, 10 μM; for inhibition at 30 µM: MCF7, 30 μM; for Antiproliferative effect / selectivity on MCF-7, in words: 10 and 30 μM
Protocol: as §1, §2

[4] = tested on: MDA-MB-231 cells; test: MTT antiproliferative assay, MDA-MB-231; assay type: cell-based, human; details: for inhibition at 10 µM / inhibition at 30 µM: Homo sapiens, 72 h, values <20% considered negligible, read-out: Growth inhibition (%) ± SEM, MDA-MB-231; for inhibition at 10 µM: MDA-MB-231, 10 μM; for inhibition at 30 µM: MDA-MB-231, 30 μM; for Antiproliferative effect / selectivity on MDA-MB-231, in words: 10 and 30 μM
Protocol: as §1, §2

[5] = tested on: A2780 cells; test: MTT antiproliferative assay, A2780; assay type: cell-based, human; details: for inhibition at 10 µM / inhibition at 30 µM: Homo sapiens, 72 h, values <20% considered negligible, read-out: Growth inhibition (%) ± SEM, A2780; for inhibition at 10 µM: A2780, 10 μM; for inhibition at 30 µM: A2780, 30 μM; for Antiproliferative effect on A2780, in words: 10 and 30 μM
Protocol: as §1, §2

[6] = tested on: NIH/3T3 fibroblasts; test: MTT assay on fibroblasts (selectivity); assay type: cell-based, murine; details: Mus musculus, 72 h, values <20% considered negligible, read-out: Growth inhibition (%) ± SEM, NIH/3T3; for inhibition at 10 µM: NIH3T3, 10 μM; for inhibition at 30 µM: NIH3T3, 30 μM
Protocol: as §1, §2

[7] = Kinetic aqueous solubility; assay type: physicochemical; details: phosphate buffered saline with 5% DMSO, aqueous with cosolvent or surfactant or cyclodextrin, kinetic from dmso stock; after 2 h, at 37 °C in PBS, pH 7.4, 5% DMSO; target concentration 500 μM; mean ± S.E.M, n = 3
Protocol: (§3) Filtrates and calibration solutions (5–500 μ M) of the kinetic solubility study and starting donor and acceptor solutions of the PAMPA-GI study were investigated by HPLC-DAD-MS. LC-MS analysis was performed using a Waters 2795 HPLC with a Waters 2487 DAD detector coupled with a Micromass Quattro Ultima TMPt quadrupol mass spectrometer equipped with an ESI source. Measurements were performed on a Waters XSelect C18 (150 × 4.6 mm; 3.5 μm) column with a […] eluent flow rate and the temperature set at 40 °C. The composition of eluent A was MilliQ water with 0.1% formic acid, and that of eluent B was an acetonitrile and MilliQ water mixture (95:5, v/v), also with 0.1% formic acid. The following linear gradient program was used: 0–6 min, 10–100% B; this was held for 3 min, then from 9.01 min on, back to the starting composition of 10% B–90% A. The injection volume was 10 μL for each sample. Chromatographic profiles were registered at dual wavelength, 220 and 240 nm. The mass spectrometer was used in negative ion mode for samples 2, 3 and 4b, and in positive ion mode for other samples. The operating parameters of the MS were: Mass range of m/z 150–700. Nitrogen gas flow rate was 350 L/h, temperature of 350 °C and pressure of 6 bar. The quadrupol temperature was 120 °C, and the capillary voltage was 2.5 kV. Fragmentor’s voltage of 60 V.
(§4) Intestinal (GI) permeability was determined by using an intestinal-specific parallel artificial membrane permeability assay (PAMPA-GI [36]]). […] All solutions were filtered by MultiScreen HTS Vacuum Manifold (Merck Ltd., Budapest, Hungary) after the incubation period. The target concentration was 500 μM for every sample investigated. The intestinal-specific effective permeability of the samples was determined by PAMPA-GI. To prepare starting solutions for a 96-well donor plate, 15 μLs of the 10 mM DMSO stock solution of investigation compounds and 285 μL pH 6.5 phosphate buffer solution were mixed. These solutions were left in a shaking incubator (300 rpm) at 25 °C for 1 h. Meanwhile, a 96-well acceptor plate was filled with 300 μL of pH 7.4 PBS buffer solution containing 5% DMSO. The intestinal-specific artificial membrane was prepared the following way: the hydrophobic filter material of the donor plate was coated with a mixture of phosphatidylcholine/cholesterol = 2:1 (5 μL, 4 % (w/v) in dodecane). After that, all donor wells were filled with 150 μL of the starting donor solutions, and they were carefully placed on the acceptor plate and incubated at 37 °C for 4 h. After the end of the incubation period the donor and acceptor plates were separated carefully. A total of 150 μL of the donor, acceptor and the starting donor solutions were sampled and analysed with HPLC-DAD-MS. The effective permeability and membrane retention of drugs were calculated using the following equations: Pe=−2.303/A·(t−τss)·1/1+rv·lg[−rv+(1+rv/1−MR)·]CD(t)/CD(0) MR=1−CD(t)/CD(0)−VA·CA(t)/VD·CD(0) where Pe is the effective permeability coefficient (cm/s), A is the filter area (0.3 cm^2), VD and VA are the volumes in the donor (0.15 cm^3) and acceptor phase (0.3 cm^3), t is the incubation time (s), τSS is the time to reach steady-state (s), CD(t) is the concentration of the compound in the donor phase at time point t (mol/cm^3), CD(0) is the concentration of the compound in the donor phase at time point zero (mol/cm^3), rv is the aqueous compartment volume ratio (VD/VA), MR is the membrane retention factor.

[8] = Intestinal-specific parallel artificial membrane permeability assay (PAMPA-GI); assay type: in vitro ADME; details: gradient pH system (pH donor 6.5 → pH acceptor 7.4) after 4 h, at 37 °C, mean ± S.E.M, n = 3; for Papp at 4 h, 500 µM: PAMPA, read-out: PAMPA-GI Pe
Protocol: as §3, §4

Compound	inhibition at 10 µM [1] [%]	inhibition at 30 µM [1] [%]	inhibition at 10 µM [2] [%]	inhibition at 30 µM [2] [%]	inhibition at 10 µM [3] [%]	inhibition at 30 µM [3] [%]	inhibition at 10 µM [4] [%]	inhibition at 30 µM [4] [%]	inhibition at 10 µM [5] [%]	inhibition at 30 µM [5] [%]	inhibition at 10 µM [6] [%]	inhibition at 30 µM [6] [%]	solubility kinetic at 2 h [7] [µM]	PAMPA-GI MR (membrane retention) [8] [%]	melting point [°C]	Antiproliferative effect / selectivity on MCF-7, in words [3]	Antiproliferative effect / selectivity on MDA-MB-231, in words [4]	Antiproliferative effect on A2780, in words [5]	Papp at 4 h, 500 µM [8] [×10⁻⁶ cm/s]
COC(=O)[C@]1(C)CCC[C@@]2(C)C3CC[C@]4(O)C[C@@]3(CCC21)[C@@H](O)[C@]4(O)CNCc1cccc2ccccc12 (stereo partly drawn) [Compound 14, (4R,6aR,7R,8R,9S,11bS)-Methyl 7,8,9-Trihydroxy-4,11b-dimethyl-8-(((naphthalen-1-ylmethyl)amino)methyl)tetradecahydro-6a,9-methanocyclohepta[a]naphthalene-4-carboxylate]	97.2 ± 0.92	98.14 ± 0.36	97.24 ± 0.39	96.7 ± 0.65	97.57 ± 0.19	97.66 ± 0.28	97.41 ± 0.21	96.46 ± 0.34	92.2 ± 3.33	96.81 ± 0.23	93.25 ± 0.51	97.34 ± 0.26	18.9 ± 2.4 (≈ 9.86 µg/mL)	94.2 ± 2.0	138 to 140	–	–	–	–
COC(=O)[C@]1(C)CCC[C@@]2(C)C3CC[C@]4(O)C[C@@]3(CCC21)[C@@H](O)[C@]4(O)CN[C@@H](C)c1ccccc1 (stereo partly drawn) [Compound 8, (4R,6aR,7R,8R,9S,11bS)-Methyl 7,8,9-Trihydroxy-4,11b-dimethyl-8-((((S)-1-phenylethyl)amino)methyl)tetradecahydro-6a,9-methanocyclohepta[a]naphthalene-4-carboxylate]	< 20	96.19 ± 0.25	< 20	95.09 ± 0.69	74 ± 2.14	96.04 ± 0.32	84.3 ± 2.78	95.62 ± 0.92	59.9 ± 3.03	97.45 ± 0.36	58.8 ± 1.41	103.2 ± 0.33	131 ± 2.2 (≈ 63.8 µg/mL)	42.6 ± 3.9	157 to 161	slightly weaker action	noteworthy selectivity	slightly weaker action	0.58 ± 0.01
COC(=O)[C@]1(C)CCC[C@@]2(C)C3CC[C@]4(O)C[C@@]3(CCC21)[C@@H](O)[C@]4(O)CN[C@H](C)c1ccc2ccccc2c1 (stereo partly drawn) [Compound 12, (4R,6aR,7R,8R,9S,11bS)-Methyl 7,8,9-Trihydroxy-4,11b-dimethyl-8-((((R)-1-(naphthalen-2-yl)ethyl)amino)methyl)tetradecahydro-6a,9-methanocyclohepta[a]naphthalene-4-carboxylate]	96.82 ± 0.56	96.94 ± 0.49	96.08 ± 0.6	95.49 ± 0.86	96.35 ± 0.36	95.87 ± 0.38	95.84 ± 0.29	95.62 ± 0.34	96.68 ± 0.36	96.38 ± 0.3	90.07 ± 0.51	94.67 ± 0.24	13.3 ± 0.9 (≈ 7.13 µg/mL)	92.6 ± 2.1	93 to 95	–	–	–	–
COC(=O)[C@]1(C)CCC[C@@]2(C)C3CC[C@]4(O)C[C@@]3(CCC21)[C@@H](O)[C@]4(O)CN[C@H](C)c1ccccc1 (stereo partly drawn) [Compound 7, (4R,6aR,7R,8R,9S,11bS)-Methyl 7,8,9-Trihydroxy-4,11b-dimethyl-8-((((R)-1-phenylethyl)amino)methyl)tetradecahydro-6a,9-methanocyclohepta[a]naphthalene-4-carboxylate]	33.7 ± 0.93	97.76 ± 0.25	< 20	94.56 ± 0.54	62.8 ± 1.05	97.69 ± 0.38	88.05 ± 0.59	94.56 ± 0.63	52.9 ± 1.83	98.14 ± 0.36	35.8 ± 4.12	100.5 ± 0.37	182 ± 3.2 (≈ 88.2 µg/mL)	28.8 ± 5.8	84 to 87	slightly weaker action	noteworthy selectivity	slightly weaker action	0.64 ± 0.07
